Measurements published in publication PMC3961306, “Comparison of the Cancer Gene Targeting and Biochemical Selectivities of All Targeted Kinase Inhibitors Approved for Clinical Use” (PLoS ONE, 2014).
pIC50: −log10 of the molar value. Where “and” joins values, the source holds several entries; their conditions need not be identical. Identical values can stand only once. Like-named read-outs stand apart in the source and are kept apart here.

System: forty-four human cancer cell lines
Assay: Cell proliferation assay (ATPlite, 72 hours) in the 44 cell line Oncolines panel
Assay type: cell-based

## COc1cccc2c1C(=O)c1c(O)c3c(c(O)c1C2=O)C[C@@](O)(C(=O)CO)C[C@@H]3O[C@H]1C[C@H](N)[C@H](O)[C@H](C)O1 [doxorubicin]
Homo sapiens, 769-P, cell line 769-P, read-out: cell panel IC50, 769-P
  pIC50: 6.95
Homo sapiens, 786-0, cell line 786-0, read-out: cell panel IC50, 786-0
  pIC50: 6.90
Homo sapiens, A 172, read-out: cell panel IC50, A-172, cell line A-172
  pIC50: 7.03
Homo sapiens, A498, read-out: cell panel IC50, A-498, cell line A-498
  pIC50: 7.02
Homo sapiens, A549, read-out: cell panel IC50, A-549, cell line A-549
  pIC50: 7.09
Homo sapiens, A-375, cell line A375, read-out: cell panel IC50, A375
  pIC50: 7.42
Homo sapiens, A-427, read-out: cell panel IC50, A-427, cell line A-427
  pIC50: 7.57
Homo sapiens, ACHN, cell line ACHN, read-out: cell panel IC50, ACHN
  pIC50: 7.21
Homo sapiens, AN3-CA, cell line AN3 CA, read-out: cell panel IC50, AN3 CA
  pIC50: 7.12
Homo sapiens, AU565, read-out: cell panel IC50, AU-565, cell line AU-565
  pIC50: 7.14
Homo sapiens, BT-20, cell line BT-20, read-out: cell panel IC50, BT-20
  pIC50: 6.72
Homo sapiens, BT-549, read-out: cell panel IC50, BT-549, cell line BT-549
  pIC50: 7.12
Homo sapiens, BXPC-3, cell line BxPC-3, read-out: cell panel IC50, BxPC-3
  pIC50: 6.76
Homo sapiens, C-33-A, cell line C-33 A, read-out: cell panel IC50, C-33 A
  pIC50: 7.59
Homo sapiens, CAL-27, cell line CAL 27, read-out: cell panel IC50, CAL 27
  pIC50: 7.68
Homo sapiens, CCRF-CEM, cell line CCRF-CEM, read-out: cell panel IC50, CCRF-CEM
  pIC50: 7.77
Homo sapiens, DLD-1, cell line DLD-1, read-out: cell panel IC50, DLD-1
  pIC50: 6.36
Homo sapiens, FaDu, cell line FaDu, read-out: cell panel IC50, FaDu
  pIC50: 7.35
Homo sapiens, HCT-15, cell line HCT-15, read-out: cell panel IC50, HCT-15
  pIC50: 6.63
Homo sapiens, HCT-116, read-out: cell panel IC50, HCT-116, cell line HCT-116
  pIC50: 7.36
Homo sapiens, Hs-578T, cell line Hs 578T, read-out: cell panel IC50, Hs 578T
  pIC50: 7.10
Homo sapiens, Jurkat E6.1, cell line Jurkat E6.1, read-out: cell panel IC50, Jurkat E6.1
  pIC50: 7.59
Homo sapiens, K562, read-out: cell panel IC50, K-562, cell line K-562
  pIC50: 7.26
Homo sapiens, LoVo, cell line LoVo, read-out: cell panel IC50, LoVo
  pIC50: 7.31
Homo sapiens, MG-63, cell line MG-63, read-out: cell panel IC50, MG-63
  pIC50: 7.25
Homo sapiens, MOLT-4, cell line MOLT-4, read-out: cell panel IC50, MOLT-4
  pIC50: 7.92
Homo sapiens, MeWo, cell line MeWo, read-out: cell panel IC50, MeWo
  pIC50: 6.69
Homo sapiens, NCI-H82, cell line NCI-H82, read-out: cell panel IC50, NCI-H82
  pIC50: 7.28
Homo sapiens, NCI-H460, cell line NCI-H460, read-out: cell panel IC50, NCI-H460
  pIC50: 7.68
Homo sapiens, OVCAR-3, cell line OVCAR-3, read-out: cell panel IC50, OVCAR-3
  pIC50: 6.59
Homo sapiens, RPMI-7951, cell line RPMI-7951, read-out: cell panel IC50, RPMI-7951
  pIC50: 7.55
Homo sapiens, SK-N-AS, cell line SK-N-AS, read-out: cell panel IC50, SK-N-AS
  pIC50: 7.14
Homo sapiens, SW48, cell line SW48, read-out: cell panel IC50, SW48
  pIC50: 6.68
Homo sapiens, SW480, cell line SW480, read-out: cell panel IC50, SW480
  pIC50: 6.45
Homo sapiens, SW-620, cell line SW620, read-out: cell panel IC50, SW620
  pIC50: 6.53
Homo sapiens, U2OS, cell line U-2 OS, read-out: cell panel IC50, U-2 OS
  pIC50: 6.96
Homo sapiens, U-87 MG, 72 h, U-87 MG cell line, ATPlite, 72 hours, read-out: IC50 in cell proliferation assay (table S5 cellpanel data)
  pIC50: 6.95
Homo sapiens, cell line J82, read-out: cell panel IC50, J82
  pIC50: 6.82
Homo sapiens, cell line PA-1, read-out: cell panel IC50, PA-1
  pIC50: 8.40
Homo sapiens, cell line SJCRH30, read-out: cell panel IC50, SJCRH30
  pIC50: 7.15
Homo sapiens, cell line SR, read-out: cell panel IC50, SR
  pIC50: 8.22
U-87 MG cell line, ATPlite, 72 hours, read-out: IC50 in cell proliferation assay (table S5 cellpanel data)
  pIC50: 7.05
Cell line 769-P, read-out: cell panel IC50, 769-P
  pIC50: 6.85 and 6.84
Cell line 786-0, read-out: cell panel IC50, 786-0
  pIC50: 6.99
Cell line A375, read-out: cell panel IC50, A375
  pIC50: 7.46 and 7.29
Cell line ACHN, read-out: cell panel IC50, ACHN
  pIC50: 7.08
Cell line AN3 CA, read-out: cell panel IC50, AN3 CA
  pIC50: 7.09 and 7.03
Cell line BT-20, read-out: cell panel IC50, BT-20
  pIC50: 6.68 and 6.80
Cell line BxPC-3, read-out: cell panel IC50, BxPC-3
  pIC50: 6.64 and 6.54
Cell line CAL 27, read-out: cell panel IC50, CAL 27
  pIC50: 7.70
Cell line CCRF-CEM, read-out: cell panel IC50, CCRF-CEM
  pIC50: 7.70
Cell line DLD-1, read-out: cell panel IC50, DLD-1
  pIC50: 6.37 and 6.46
Cell line FaDu, read-out: cell panel IC50, FaDu
  pIC50: 7.33 and 7.24
Cell line HCT-15, read-out: cell panel IC50, HCT-15
  pIC50: 6.60 and 6.56
Cell line Hs 578T, read-out: cell panel IC50, Hs 578T
  pIC50: 7.05 and 7.24
Cell line J82, read-out: cell panel IC50, J82
  pIC50: 6.84 and 6.87
Cell line Jurkat E6.1, read-out: cell panel IC50, Jurkat E6.1
  pIC50: 7.51 and 7.62
Cell line LoVo, read-out: cell panel IC50, LoVo
  pIC50: 7.23
Cell line MG-63, read-out: cell panel IC50, MG-63
  pIC50: 7.17 and 7.06
Cell line MOLT-4, read-out: cell panel IC50, MOLT-4
  pIC50: 7.96 and 7.89
Cell line MeWo, read-out: cell panel IC50, MeWo
  pIC50: 6.65 and 6.58
Cell line NCI-H82, read-out: cell panel IC50, NCI-H82
  pIC50: 7.19
Cell line NCI-H460, read-out: cell panel IC50, NCI-H460
  pIC50: 7.60
Cell line OVCAR-3, read-out: cell panel IC50, OVCAR-3
  pIC50: 6.50 and 6.56
Cell line PA-1, read-out: cell panel IC50, PA-1
  pIC50: 8.28 and 8.19
Cell line RPMI-7951, read-out: cell panel IC50, RPMI-7951
  pIC50: 7.48 and 7.49
Cell line SJCRH30, read-out: cell panel IC50, SJCRH30
  pIC50: 7.21 and 7.37
Cell line SK-N-AS, read-out: cell panel IC50, SK-N-AS
  pIC50: 7.00
Cell line SR, read-out: cell panel IC50, SR
  pIC50: 8.18 and 8.00
Cell line SW48, read-out: cell panel IC50, SW48
  pIC50: 6.95 and 6.92
Cell line SW480, read-out: cell panel IC50, SW480
  pIC50: 6.50 and 6.43
Cell line SW620, read-out: cell panel IC50, SW620
  pIC50: 6.45 and 6.35
Cell line U-2 OS, read-out: cell panel IC50, U-2 OS
  pIC50: 6.94 and 6.82
read-out: cell panel IC50, A-172, cell line A-172
  pIC50: 7.02
read-out: cell panel IC50, A-427, cell line A-427
  pIC50: 7.51 and 7.40
read-out: cell panel IC50, A-498, cell line A-498
  pIC50: 7.04
read-out: cell panel IC50, A-549, cell line A-549
  pIC50: 7.17
read-out: cell panel IC50, AU-565, cell line AU-565
  pIC50: 7.03 and 7.10
read-out: cell panel IC50, BT-549, cell line BT-549
  pIC50: 7.05
read-out: cell panel IC50, HCT-116, cell line HCT-116
  pIC50: 7.21 and 7.19
read-out: cell panel IC50, K-562, cell line K-562
  pIC50: 7.24
